Reference: the supplement of paper PMC10307832

Assays:
Test in all cases: relative viability (nuclei count vs DMSO), 5 days (fraction); higher = more cells survive
BMX-IN-1 + Foretinib = compound: C=CC(=O)Nc1cc(-n2c(=O)ccc3cnc4ccc(-c5ccc(NS(C)(=O)=O)cc5)cc4c32)ccc1C [BMX-IN-1] + COc1cc2c(Oc3ccc(NC(=O)C4(C(=O)Nc5ccc(F)cc5)CC4)cc3F)ccnc2cc1OCCCN1CCOCC1 [Foretinib] (partner 0.25 µM)
In short: (§1)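 Lung cancer cell lines were pin-tool dosed in 1536-well plates on the day after seeding, with either a lone drug or a fixed anchor-drug dose plus five library-drug doses (not always all listed) in √10 steps. Nuclei were counted on 4× images after 5 days. Relative viability is the ratio of treated-well to vehicle-well nuclei counts, with each value a median of duplicate plates.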

Ibrutinib + Pemetrexed = compound: C=CC(=O)N1CCC[C@@H](n2nc(-c3ccc(Oc4ccccc4)cc3)c3c(N)ncnc32)C1 [Ibrutinib] + Nc1nc2[nH]cc(CCc3ccc(C(=O)N[C@@H](CCC(=O)O)C(=O)O)cc3)c2c(=O)[nH]1 [Pemetrexed] (partner 0.2 µM)
In short: as §1

PAC-1 + Alpelisib = compound: C=CCc1cccc(/C=N/NC(=O)CN2CCN(Cc3ccccc3)CC2)c1O [PAC-1] + Cc1nc(NC(=O)N2CCC[C@H]2C(N)=O)sc1-c1ccnc(C(C)(C)C(F)(F)F)c1 [Alpelisib] (partner 2 µM)
In short: as §1

PAC-1 + Navitoclax = compound: C=CCc1cccc(/C=N/NC(=O)CN2CCN(Cc3ccccc3)CC2)c1O [PAC-1] + CC1(C)CCC(c2ccc(Cl)cc2)=C(CN2CCN(c3ccc(C(=O)NS(=O)(=O)c4ccc(N[C@H](CCN5CCOCC5)CSc5ccccc5)c(S(=O)(=O)C(F)(F)F)c4)cc3)CC2)C1 [Navitoclax] (partner 0.5 µM)
In short: as §1

Cell Line | relative viability (BMX-IN-1 + Foretinib; first compound 0.02 µM) | relative viability (BMX-IN-1 + Foretinib; first compound 0.2 µM) | relative viability (BMX-IN-1 + Foretinib; first compound 0.6325 µM) | relative viability (BMX-IN-1 + Foretinib; first compound 2 µM) | relative viability (Ibrutinib + Pemetrexed; first compound 0.005 µM) | relative viability (Ibrutinib + Pemetrexed; first compound 0.01581 µM) | relative viability (Ibrutinib + Pemetrexed; first compound 0.05 µM) | relative viability (Ibrutinib + Pemetrexed; first compound 0.1581 µM) | relative viability (Ibrutinib + Pemetrexed; first compound 0.5 µM) | relative viability (PAC-1 + Alpelisib; first compound 0.02 µM) | relative viability (PAC-1 + Alpelisib; first compound 0.06325 µM) | relative viability (PAC-1 + Alpelisib; first compound 0.2 µM) | relative viability (PAC-1 + Alpelisib; first compound 2 µM) | relative viability (PAC-1 + Navitoclax; first compound 0.02 µM) | relative viability (PAC-1 + Navitoclax; first compound 0.06325 µM) | relative viability (PAC-1 + Navitoclax; first compound 0.2 µM) | relative viability (PAC-1 + Navitoclax; first compound 2 µM)
NCI-H1734 | 1.01 | 0.954 | 1.08 | 0.796 | 0.423 | 0.415 | 0.461 | 0.387 | 0.489 | 0.662 | 0.664 | 0.748 | 0.642 | 0.826 | 0.832 | 0.813 | 0.881
A-427 | 1.1 | 1.24 | 1.02 | 0.97 | 0.986 | 0.995 | 0.961 | – | 1.02 | 1.17 | 1.08 | 1.05 | 1.05 | 1 | 0.92 | 0.908 | 0.907
NCI-H2170 | 1.23 | 0.975 | 0.993 | 0.987 | 0.248 | 0.266 | 0.264 | 0.259 | 0.21 | 0.746 | 0.859 | 0.752 | 0.7 | 0.637 | 0.622 | 0.569 | 0.461
NCI-H1437 | 1.34 | 1.27 | 1.31 | 1.32 | 0.366 | 0.33 | 0.361 | 0.296 | 0.408 | 0.953 | 0.932 | 0.906 | 0.716 | 1.04 | 1.12 | 1.01 | 0.775
PC-3 [JPC-3] | 1.12 | 1.16 | 1.09 | 1 | 1.14 | 0.995 | 0.72 | 0.624 | 0.365 | 1 | 1.09 | 0.98 | 0.972 | 0.894 | 0.817 | 0.708 | 0.844
201T | 1.25 | 1.14 | 0.912 | 1.12 | 0.296 | 0.301 | 0.363 | 0.363 | 0.507 | 0.935 | 1 | 1.03 | 1.01 | 1.21 | 1.23 | 1.21 | 1.16
PC-14 | 1.04 | 1.05 | 1.16 | 0.922 | 0.157 | 0.138 | 0.133 | 0.121 | 0.201 | 0.989 | 0.856 | 0.938 | 0.962 | 0.968 | 0.975 | 0.959 | 1.03
RERF-LC-KJ | 0.971 | 1.02 | 1.08 | 0.868 | 0.462 | 0.455 | 0.512 | 0.433 | 0.569 | 0.768 | 0.8 | 1.33 | 0.783 | 0.859 | 0.932 | 1.11 | 0.733
HCC-15 | 1.24 | 1.13 | 1.11 | 1.02 | 0.238 | 0.223 | 0.238 | 0.235 | 0.322 | 0.924 | 0.831 | 0.854 | 0.851 | 0.735 | 0.685 | 0.676 | 0.74
NCI-H1755 | 0.833 | 0.891 | 1.05 | 0.905 | 0.42 | 0.481 | 0.475 | 0.456 | 0.516 | 0.925 | 0.918 | 0.865 | 0.826 | 0.959 | 0.954 | 0.986 | 0.989
NCI-H441 | 1.26 | 1.05 | 1.14 | 0.876 | 0.287 | 0.269 | 0.293 | 0.263 | 0.301 | 0.629 | 0.671 | 0.679 | 0.57 | 0.435 | 0.645 | 0.587 | 0.56
HOP-62 | 1.26 | 1.27 | 1.09 | 1.1 | 0.415 | 0.32 | 0.434 | 0.446 | 0.879 | 1.07 | 0.875 | 0.798 | 0.85 | 1.04 | 1.02 | 0.58 | 0.988
UMC-11 | 1.15 | 1.13 | 0.981 | 1.11 | 0.87 | 0.732 | 0.832 | 0.824 | 0.821 | 0.982 | 0.992 | 1.05 | 1.09 | 0.334 | 0.311 | 0.308 | 0.318
BEN | 0.635 | 0.698 | 0.619 | 0.819 | 0.489 | 0.757 | 0.637 | 0.469 | 0.785 | 1.04 | 1.1 | 1.09 | 0.965 | 0.0891 | 0.0706 | 0.0845 | 0.0674
NCI-H520 | 0.825 | 0.879 | 0.864 | 0.825 | 0.67 | 0.769 | 0.666 | 0.718 | 0.724 | 0.704 | 0.979 | 0.927 | 0.925 | 1.11 | 1.02 | 1.04 | 1.12
SK-LU-1 | 0.92 | 1.04 | 0.785 | 0.76 | – | 0.975 | 1.08 | 1 | 1.09 | 0.901 | 1 | 0.919 | 0.854 | 0.803 | 0.892 | 0.733 | 0.888
NCI-H2087 | 1.25 | 1.12 | 1.37 | 1.26 | 0.639 | 0.626 | 0.748 | – | 0.694 | 1.07 | 1.02 | 1 | 1.1 | 1.15 | 0.991 | 0.965 | 0.998
COR-L 105 | 1.12 | 1.2 | 1.37 | 1.17 | 0.778 | 1.16 | 0.855 | 1.06 | 0.692 | 0.736 | 1.22 | 1.04 | 1.24 | 0.852 | 0.725 | 1.38 | 0.841
